Values after ≈ are worked out from the molar mass of the structure shown. Read-outs that look alike come from different tables or passages of the source.
Key:
[1] = test system: K. pneumoniae NVT1001 strains with carbapenemase plasmids; assay: Etest MIC of β-lactams, OmpK35/36 loss, ΔramR and/or carbapenemase (Table 9); type: cell-based, Klebsiella pneumoniae; details: for MIC: Klebsiella pneumoniae
Method: DNA fragments of the resistance genes along with their flanking regions were amplified from clinical plasmids via PCR with specific primer pairs. The resulting PCR fragments were digested and then cloned into the plasmid pACYC177 or pACYC184. The resulting plasmids were then transformed into K. pneumoniae strain NVT1001 via electroporation. The recombinant bacteria were plated onto LB agar plates containing kanamycin (50 mg/L) or chloramphenicol (50 mg/L), and the presence of the cloned gene was confirmed via PCR and DNA sequencing.
The MICs of antibiotics were determined using the Etest (Biodisk AB, Sweden) according to the manufacturer's instructions. The MICs from the Etest, which fall between standard two-fold dilutions, were rounded up to the next highest two-fold value. The MICs of ceftazidime and cefotaxime against K. pneumoniae NVT1001 harbouring the pACYC177 plasmid with blaOXA-48 were further determined using a broth microdilution test according to the recommendations of the CLSI,^25 and the results were interpreted according to the breakpoints established by the CLSI in 2017.^25 Meanwhile, due to the lack of CLSI breakpoints in 2016 and 2017, the results for cephalothin were interpreted according to the breakpoints established by the CLSI in 2015,^26 and the results for moxifloxacin were interpreted according to the breakpoints established by the EUCAST in 2017.^27

[2] = test system: K. pneumoniae NVT1001 and its ΔompK35/36 and/or ΔramR mutants; assay: Etest MIC, OmpK35/36 loss and AcrAB-TolC overexpression (ΔramR) strains (Table 6); type: cell-based, Klebsiella pneumoniae; details: Klebsiella pneumoniae
In short: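 Ceftazidime and cefotaxime were tested by CLSI broth microdilution on the blaOXA-48 pACYC177 transformant of NVT1001, using CLSI 2017 breakpoints. Parent, porin-deleted (ΔompK35/36) and ΔramR strains were tested by Etest, with values between two-fold dilutions rounded up.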

[3] = test system: K. pneumoniae NVT1001 ΔramRΔompK35/36 mutant and its revertants; assay: Etest MIC, ΔramRΔompK35/36 mutant and its revertants (Table 7); type: cell-based; details: Klebsiella pneumoniae
[4] = ΔramRΔ35/36, ΔramRΔompK35/36 mutant
[5] = ΔramRΔompK35/36::ompK35/36 revertant
[6] = ΔramRΔompK35/36::ompK35 revertant
[7] = ΔramRΔompK35/36::ompK36 revertant
[8] = ΔramRΔompK35/36::ramR revertant
[9] = ΔramRΔompK35/36::ramR::ompK35/36 revertant
[10] = ΔramRΔompK35/36::ramR::ompK35 revertant
[11] = ΔramRΔompK35/36::ramR::ompK36 revertant

With `C[C@H]1[C@H](NC(=O)/C(=N\OC(C)(C)C(=O)O)c2csc(N)n2)C(=O)N1S(=O)(=O)O` [Aztreonam] the susceptibility category ([1]; IMP-8, NDM-1, VIM-1 and OXA-48 strains, with or without OmpK35/36 loss and/or ΔramR) was “susceptible”, the MIC ([1]; IMP-8 on pACYC177, WT (NVT1001), read-out: MIC) was 0.06 µg/mL and the MIC ([1]; IMP-8 on pACYC177, Δ35 (ΔompK35 mutant)) was 0.25 µg/mL. It also gave an MIC ([1]; IMP-8 on pACYC177, Δ35/36 (ΔompK35/36 mutant)) of 0.5 µg/mL, an MIC ([1]; IMP-8 on pACYC177, Δ36 (ΔompK36 mutant)) of 0.06 µg/mL and an MIC ([1]; IMP-8 on pACYC177, ΔramR mutant) of 0.5 µg/mL. It also gave an MIC ([1]; IMP-8 on pACYC177, ΔramRΔ35 (ΔramRΔompK35 mutant)) of 0.5 µg/mL, an MIC ([1]; IMP-8 on pACYC177, ΔramRΔ35/36 (ΔramRΔompK35/36 mutant)) of 0.5 µg/mL and an MIC ([1]; IMP-8 on pACYC177, ΔramRΔ36 (ΔramRΔompK36 mutant)) of 0.5 µg/mL. The MIC ([1]; KPC-2 on pACYC177, WT (NVT1001), read-out: MIC) was > 256 µg/mL, the MIC ([1]; KPC-2 on pACYC177, Δ35 (ΔompK35 mutant)) was > 256 µg/mL and the MIC ([1]; KPC-2 on pACYC177, Δ35/36 (ΔompK35/36 mutant)) was > 256 µg/mL. For the same molecule, the MIC ([1]; KPC-2 on pACYC177, Δ36 (ΔompK36 mutant)) was 256 µg/mL, the MIC ([1]; KPC-2 on pACYC177, ΔramR mutant) was > 256 µg/mL and the MIC ([1]; KPC-2 on pACYC177, ΔramRΔ35 (ΔramRΔompK35 mutant)) was > 256 µg/mL. The MIC ([1]; KPC-2 on pACYC177, ΔramRΔ35/36 (ΔramRΔompK35/36 mutant)) was > 256 µg/mL, the MIC ([1]; KPC-2 on pACYC177, ΔramRΔ36 (ΔramRΔompK36 mutant)) was > 256 µg/mL and the MIC ([1]; KPC-3 on pACYC177, WT (NVT1001), read-out: MIC) was > 256 µg/mL. The MIC ([1]; KPC-3 on pACYC177, Δ35 (ΔompK35 mutant)) was > 256 µg/mL, the MIC ([1]; KPC-3 on pACYC177, Δ35/36 (ΔompK35/36 mutant)) was > 256 µg/mL and the MIC ([1]; KPC-3 on pACYC177, Δ36 (ΔompK36 mutant)) was > 256 µg/mL. For the same molecule, the MIC ([1]; KPC-3 on pACYC177, ΔramR mutant) was > 256 µg/mL, the MIC ([1]; KPC-3 on pACYC177, ΔramRΔ35 (ΔramRΔompK35 mutant)) was > 256 µg/mL and the MIC ([1]; KPC-3 on pACYC177, ΔramRΔ35/36 (ΔramRΔompK35/36 mutant)) was > 256 µg/mL. For the same molecule, the MIC ([1]; KPC-3 on pACYC177, ΔramRΔ36 (ΔramRΔompK36 mutant)) was > 256 µg/mL, the MIC ([1]; NDM-1 on pACYC177, WT (NVT1001), read-out: MIC) was 0.06 µg/mL and the MIC ([1]; NDM-1 on pACYC177, Δ35 (ΔompK35 mutant)) was 0.25 µg/mL. It also gave an MIC ([1]; NDM-1 on pACYC177, Δ35/36 (ΔompK35/36 mutant)) of 0.5 µg/mL, an MIC ([1]; NDM-1 on pACYC177, Δ36 (ΔompK36 mutant)) of 0.06 µg/mL and an MIC ([1]; NDM-1 on pACYC177, ΔramR mutant) of 0.5 µg/mL. The MIC ([1]; NDM-1 on pACYC177, ΔramRΔ35 (ΔramRΔompK35 mutant)) was 0.5 µg/mL, the MIC ([1]; NDM-1 on pACYC177, ΔramRΔ35/36 (ΔramRΔompK35/36 mutant)) was 0.5 µg/mL and the MIC ([1]; NDM-1 on pACYC177, ΔramRΔ36 (ΔramRΔompK36 mutant)) was 0.5 µg/mL. For the same molecule, the MIC ([1]; OXA-48 on pACYC177, WT (NVT1001), read-out: MIC) was 0.06 µg/mL, the MIC ([1]; OXA-48 on pACYC177, Δ35 (ΔompK35 mutant)) was 0.25 µg/mL and the MIC ([1]; OXA-48 on pACYC177, Δ35/36 (ΔompK35/36 mutant)) was 0.5 µg/mL. For the same molecule, the MIC ([1]; OXA-48 on pACYC177, Δ36 (ΔompK36 mutant)) was 0.125 µg/mL, the MIC ([1]; OXA-48 on pACYC177, ΔramR mutant) was 0.5 µg/mL and the MIC ([1]; OXA-48 on pACYC177, ΔramRΔ35 (ΔramRΔompK35 mutant)) was 0.5 µg/mL. It also gave an MIC ([1]; OXA-48 on pACYC177, ΔramRΔ35/36 (ΔramRΔompK35/36 mutant)) of 0.5 µg/mL, an MIC ([1]; OXA-48 on pACYC177, ΔramRΔ36 (ΔramRΔompK36 mutant)) of 0.5 µg/mL and an MIC ([1]; VIM-1 on pACYC177, WT (NVT1001), read-out: MIC) of 0.06 µg/mL. It also gave an MIC ([1]; VIM-1 on pACYC177, Δ35 (ΔompK35 mutant)) of 0.25 µg/mL, an MIC ([1]; VIM-1 on pACYC177, Δ35/36 (ΔompK35/36 mutant)) of 0.5 µg/mL and an MIC ([1]; VIM-1 on pACYC177, Δ36 (ΔompK36 mutant)) of 0.06 µg/mL. The MIC ([1]; VIM-1 on pACYC177, ΔramR mutant) was 0.5 µg/mL, the MIC ([1]; VIM-1 on pACYC177, ΔramRΔ35 (ΔramRΔompK35 mutant)) was 0.5 µg/mL and the MIC ([1]; VIM-1 on pACYC177, ΔramRΔ35/36 (ΔramRΔompK35/36 mutant)) was 1 µg/mL. For the same molecule, the MIC ([1]; VIM-1 on pACYC177, ΔramRΔ36 (ΔramRΔompK36 mutant)) was 1 µg/mL, the MIC ([1]; no supplemental plasmid, WT (NVT1001), read-out: MIC) was 0.03 µg/mL and the MIC ([1]; no supplemental plasmid, Δ35 (ΔompK35 mutant)) was 0.25 µg/mL. The MIC ([1]; no supplemental plasmid, Δ35/36 (ΔompK35/36 mutant)) was 0.5 µg/mL, the MIC ([1]; no supplemental plasmid, Δ36 (ΔompK36 mutant)) was 0.06 µg/mL and the MIC ([1]; no supplemental plasmid, ΔramR mutant) was 0.5 µg/mL. It also gave an MIC ([1]; no supplemental plasmid, ΔramRΔ35 (ΔramRΔompK35 mutant)) of 0.5 µg/mL, an MIC ([1]; no supplemental plasmid, ΔramRΔ35/36 (ΔramRΔompK35/36 mutant)) of 1 µg/mL and an MIC ([1]; no supplemental plasmid, ΔramRΔ36 (ΔramRΔompK36 mutant)) of 1 µg/mL. The MIC ([2]; WT, NVT1001, read-out: MIC) was 0.03 µg/mL (≈ 0.0689 µM), the MIC ([2]; Δ35, ΔompK35 mutant) was 0.25 µg/mL (≈ 0.574 µM) and the MIC ([2]; Δ35/36, ΔompK35/36 mutant) was 0.5 µg/mL (≈ 1.15 µM). It also gave an MIC ([2]; Δ36, ΔompK36 mutant) of 0.06 µg/mL (≈ 0.138 µM), an MIC ([2]; ΔramR mutant) of 0.5 µg/mL (≈ 1.15 µM) and an MIC ([2]; ΔramRΔ35, ΔramRΔompK35 mutant) of 0.5 µg/mL (≈ 1.15 µM). It also gave an MIC [2, 4] of 1 µg/mL (≈ 2.3 µM), an MIC ([2]; ΔramRΔ36, ΔramRΔompK36 mutant) of 1 µg/mL (≈ 2.3 µM) and an MIC [3, 5] of 0.5 µg/mL. It also gave an MIC [3, 6] of 1 µg/mL, an MIC [3, 7] of 0.5 µg/mL and an MIC [3, 8] of 0.5 µg/mL. The MIC [3, 9] was 0.03 µg/mL, the MIC [3, 10] was 0.06 µg/mL and the MIC [3, 11] was 0.25 µg/mL. For the same molecule, the MIC ([3]; ΔramRΔompK35/36 mutant) was 1 µg/mL.

`C[C@H]1COc2c(N3CCN(C)CC3)c(F)cc3c(=O)c(C(=O)O)cn1c23` [Levofloxacin, levofloxacin] showed an MIC ([2]; WT, NVT1001, read-out: MIC) of 0.06 µg/mL (≈ 0.166 µM), an MIC ([2]; Δ35, ΔompK35 mutant) of 0.125 µg/mL (≈ 0.346 µM) and an MIC ([2]; Δ35/36, ΔompK35/36 mutant) of 0.125 µg/mL (≈ 0.346 µM). For the same molecule, the MIC ([2]; Δ36, ΔompK36 mutant) was 0.125 µg/mL (≈ 0.346 µM), the MIC ([2]; ΔramR mutant) was 1 µg/mL (≈ 2.77 µM) and the MIC ([2]; ΔramRΔ35, ΔramRΔompK35 mutant) was 1 µg/mL (≈ 2.77 µM). For the same molecule, the MIC [2, 4] was 1 µg/mL (≈ 2.77 µM), the MIC ([2]; ΔramRΔ36, ΔramRΔompK36 mutant) was 1 µg/mL (≈ 2.77 µM) and the MIC [3, 5] was 0.5 µg/mL. It also gave an MIC [3, 6] of 1 µg/mL, an MIC [3, 7] of 0.5 µg/mL and an MIC [3, 8] of 0.125 µg/mL. For the same molecule, the MIC [3, 9] was 0.06 µg/mL, the MIC [3, 10] was 0.06 µg/mL and the MIC [3, 11] was 0.125 µg/mL. It also gave an MIC ([3]; ΔramRΔompK35/36 mutant) of 1 µg/mL.

In the case of `COc1c(N2C[C@@H]3CCCN[C@@H]3C2)c(F)cc2c(=O)c(C(=O)O)cn(C3CC3)c12` [Moxifloxacin, moxifloxacin], the MIC ([2]; WT, NVT1001, read-out: MIC) is reported as 0.125 µg/mL (≈ 0.311 µM), the MIC ([2]; Δ35, ΔompK35 mutant) is reported as 0.125 µg/mL (≈ 0.311 µM) and the MIC ([2]; Δ35/36, ΔompK35/36 mutant) is reported as 0.125 µg/mL (≈ 0.311 µM). It also gave an MIC ([2]; Δ36, ΔompK36 mutant) of 0.06 µg/mL (≈ 0.149 µM), an MIC ([2]; ΔramR mutant) of 1 µg/mL (≈ 2.49 µM) and an MIC ([2]; ΔramRΔ35, ΔramRΔompK35 mutant) of 1 µg/mL (≈ 2.49 µM). The MIC [2, 4] was 1 µg/mL (≈ 2.49 µM), the MIC ([2]; ΔramRΔ36, ΔramRΔompK36 mutant) was 1 µg/mL (≈ 2.49 µM) and the MIC [3, 5] was 0.5 µg/mL. For the same molecule, the MIC [3, 6] was 1 µg/mL, the MIC [3, 7] was 0.5 µg/mL and the MIC [3, 8] was 0.06 µg/mL. The MIC [3, 9] was 0.125 µg/mL, the MIC [3, 10] was 0.06 µg/mL and the MIC [3, 11] was 0.125 µg/mL. The MIC ([3]; ΔramRΔompK35/36 mutant) was 1 µg/mL.
